Experiment [1] deals with T1, MAP/microtubule affinity-regulating kinase 4 (Homo sapiens) (UniProt Q96L34).
T1 sequence (whole entry): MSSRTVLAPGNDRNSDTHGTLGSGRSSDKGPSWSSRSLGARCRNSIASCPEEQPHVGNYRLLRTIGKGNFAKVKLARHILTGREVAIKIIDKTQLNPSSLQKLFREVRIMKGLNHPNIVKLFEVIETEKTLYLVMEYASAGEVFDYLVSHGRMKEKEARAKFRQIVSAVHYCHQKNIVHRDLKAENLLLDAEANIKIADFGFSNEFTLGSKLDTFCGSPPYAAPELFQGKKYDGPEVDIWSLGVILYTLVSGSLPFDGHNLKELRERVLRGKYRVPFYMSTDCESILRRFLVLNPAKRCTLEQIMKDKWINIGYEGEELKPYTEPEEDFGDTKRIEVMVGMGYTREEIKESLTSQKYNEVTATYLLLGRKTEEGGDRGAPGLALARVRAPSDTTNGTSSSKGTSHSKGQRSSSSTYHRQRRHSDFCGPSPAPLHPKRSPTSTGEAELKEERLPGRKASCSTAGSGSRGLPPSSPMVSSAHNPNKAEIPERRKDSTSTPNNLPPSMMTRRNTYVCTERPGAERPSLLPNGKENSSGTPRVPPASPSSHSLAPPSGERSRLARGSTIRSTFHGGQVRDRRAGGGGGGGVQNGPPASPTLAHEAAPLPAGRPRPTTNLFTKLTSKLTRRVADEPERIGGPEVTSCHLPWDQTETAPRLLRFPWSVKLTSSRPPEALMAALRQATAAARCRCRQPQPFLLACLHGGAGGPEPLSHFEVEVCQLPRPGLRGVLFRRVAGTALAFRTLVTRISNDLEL
Description: Binding affinity to human MARK4.

Experiment [2] concerns PC-3. Description: Antiproliferation activity against human PC3 cells assessed as cell proliferation at 20 uM by MTS assay. Conditions: read-out: Activity. It counts as functional.
Experiment [3] has as its system PC-3. Put plainly: Inhibition of PIP5K1alpha protein expression in human PC3 cells assessed as PIP5K1alpha/beta-actin ratio level at 20 uM incubated for 48 hrs by immunoblot analysis (reference value: 9.43). It counts as functional.
The test system of experiment [4] is LNCaP. Description: Induction of apoptosis in human LNCAP cells assessed as formation of apoptotic bodies at 20 uM incubated for 48 hrs. Format: functional, cell-based.
In experiment [5] the test system is LNCaP. Put plainly: Reduction in SKP2 protein expression in human LNCAP cells at 20 uM incubated for 48 hrs by immunoblot analysis. It counts as functional, cell-based.
In experiment [6] the test system is LNCaP. Put plainly: Inhibition of AR protein expression in human LNCAP cells at 20 uM incubated for 48 hrs by immunoblot analysis. It counts as functional, cell-based.
Experiment [7] concerns LNCaP. Put plainly: Inhibition of PSA protein expression in human LNCAP cells at 20 uM incubated for 48 hrs by immunoblot analysis. Format: functional, cell-based.
In experiment [8] the test system is PC-3. Description: Inhibition of PIP5K1alpha protein expression in human PC3 cells assessed as reduction in cyclin D1 expression at 50 uM incubated for 48 hrs by immunoblot analysis relative to control. It counts as functional, cell-based.
The subject of experiment [9] is PC-3. Description: Inhibition of PIP5K1alpha protein expression in human PC3 cells assessed as reduction in cyclin B1 expression at 50 uM incubated for 48 hrs by immunoblot analysis relative to control. It counts as functional, cell-based.

The values that follow come from ChEMBL document CHEMBL4419175, “Compositions for treatment, diagnosis and prognosis of diseases” (2016).

The source made the active and inactive calls. No cut-off for these calls is given here.

In the case of `CN1CC(=O)N2[C@H](c3c[nH]c4ccc(Cl)cc34)c3cc4c(cc3C[C@H]2C1=O)OCO4`, the result (in experiment [1]; in the experiment with LNCaP [4]; with LNCaP [5]) was Active. In addition, the growth at 20 µM in the experiment on PC-3 [2] is 48.6%. In the experiment with PC-3 [3], the Ratio came to 2.01. The inhibition result in the experiment with LNCaP [6], in the experiment on LNCaP [7], in the experiment on PC-3 [8] and with PC-3 [9] was “Active” throughout.
